Data reported in patent US20220267329A1, “Dihydro-Spiro[Indoline-3:1'-Isoquinolin]-2-Ones and Their Analogues and Derivatives and Methods of Treating Cancer and Other Diseases” (The University of Buea, priority 2019, published 2022).

Columns and labels:
[1] = system: EMT6 breast cancer cell line; assay: Antiproliferative screening on EMT6 cancer cells; assay type: cell-based; settings: for activity at 100 µM: Mus musculus, EMT6, no ligand = 100, read-out: EMT6 cell proliferation (%)
Experimental: Representative compounds were screened tested for antiproliferative activity on the EMT6 breast cancer cell line. Screening was carried out according to published procedures (Zeng et al., 2014). In this screen, compounds were tested at 100 μM concentration.

[2] = biological target: sphingosine-1-phosphate receptor 1 (S1PR1) (Homo sapiens, UniProt P21453); assay: Radioligand binding to sphingosine-1-phosphate receptor 1; settings: test compound 100 nM, 0.2 nM radioligand; read-out: % INHIBITION of binding to the SIP1 Receptor
Experimental: The binding of a representative group of compounds of this invention to sphingosine-1-phosphate receptor 1 (S1PR1) was determined by a published procedure (Rosenberg et al., 2016). In this assay, the test compound at 100 nM concentration was incubated with 0.2 nM radioligand. Active compounds or “hits” are defined as compounds that inhibit radioligand binding by 50% or more. […] This finding is significant because it establishes the 3′,4′-dihydro-2′H-[…]-2-one hybrid scaffold as an entirely new class of ligands for the sphingosine-1-phosphate receptors.

[3] = system: nonsmall cell lung cancer (NSCLC) cell lines; assay: NCI-60 screen, NSCLC cell lines; assay type: cell-based, human; settings: NCI-60 preliminary screening; for inhibition at 10 µM: Homo sapiens, read-out: Percent (%) Inhibition of Cancer Cell Line, NSCLC
Experimental: (§1) Screening for Anticancer Activity—The NCI-60 panel: Representative compounds of the invention were subjected to anticancer testing in the National Cancer Institute (NCI) 60 screen. In this screen compounds are tested on a panel of sixty human cancer cell lines chosen from the following cancers: leukemia, nonsmall cell lung cancer (NSCLC), colon, melanoma, central nervous system (CNS), ovarian, renal, prostate and breast. The assay method is found on the NCI website (dtp.cancer.gov/discovery_development/nci-60/methodology.htm). In the NCI-60 assay, test compounds undergo preliminary screening at 10 μM concentration. The data is reported as percent growth relative to “no drug” control; therefore values between 0 and 100% denote growth inhibition.

[4] = system: renal cancer cell lines; assay: NCI-60 screen, renal cell lines; assay type: cell-based, human; settings: NCI-60 preliminary screening; for inhibition at 10 µM: Homo sapiens, read-out: Percent (%) Inhibition of Cancer Cell Line, Renal Cell
Experimental: as §1

[5] = system: breast cancer cell lines; assay: NCI-60 screen, breast cell lines; assay type: cell-based, human; settings: NCI-60 preliminary screening; for inhibition at 10 µM: Homo sapiens, read-out: Percent (%) Inhibition of Cancer Cell Line, Breast
Experimental: as §1

[6] = system: panel of sixty human cancer cell lines; assay: NCI-60 screen, whole panel; assay type: cell-based; settings: 10 μM
Experimental: as §1

[7] = system: ovarian cancer cell lines; assay: NCI-60 screen, ovarian cell lines; assay type: cell-based, human; settings: NCI-60 preliminary screening; for inhibition at 10 µM: Homo sapiens, read-out: Percent (%) Inhibition of Cancer Cell Line, Ovarian
Experimental: as §1

[8] = system: prostate cancer cell lines; assay: NCI-60 screen, prostate cell lines; assay type: cell-based, human; settings: NCI-60 preliminary screening; for inhibition at 10 µM: Homo sapiens, Prostate cell, read-out: Percent (%) Inhibition of Cancer Cell Line, Prostate
Experimental: as §1

[9] = system: central nervous system (CNS) cancer cell lines; assay: NCI-60 screen, CNS cell lines; assay type: cell-based; settings: Homo sapiens, NCI-60 preliminary screening, read-out: Percent (%) Inhibition of Cancer Cell Line, CNS
Experimental: as §1

[10] = system: leukemia cell lines; assay: NCI-60 screen, leukemia cell lines; assay type: cell-based; settings: Homo sapiens, NCI-60 preliminary screening, read-out: Percent (%) Inhibition of Cancer Cell Line, Leukemia
Experimental: as §1

[11] = system: melanoma cell lines; assay: NCI-60 screen, melanoma cell lines; assay type: cell-based; settings: Homo sapiens, NCI-60 preliminary screening, read-out: Percent (%) Inhibition of Cancer Cell Line, Melanoma
Experimental: as §1

Sequence of sphingosine-1-phosphate receptor 1 (S1PR1) (P21453 whole entry, species assumed): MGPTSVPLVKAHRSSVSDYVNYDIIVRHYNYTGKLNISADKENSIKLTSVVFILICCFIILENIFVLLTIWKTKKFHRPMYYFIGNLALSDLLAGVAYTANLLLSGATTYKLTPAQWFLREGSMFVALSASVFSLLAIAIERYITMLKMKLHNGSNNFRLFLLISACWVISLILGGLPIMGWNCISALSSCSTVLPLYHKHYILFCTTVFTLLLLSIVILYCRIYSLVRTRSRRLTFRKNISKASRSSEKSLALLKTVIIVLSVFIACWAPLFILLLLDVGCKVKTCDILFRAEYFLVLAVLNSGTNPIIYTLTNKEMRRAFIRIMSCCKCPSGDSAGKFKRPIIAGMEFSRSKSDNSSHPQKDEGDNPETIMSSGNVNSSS

Compound	inhibition at 0.1 µM [2] [%]	activity at 100 µM [1] [%]	inhibition at 10 µM [4] [%]	inhibition at 10 µM [5] [%]	antiproliferative activity in the NCI-60 panel [6]	inhibition at 10 µM [9] [%]	inhibition at 10 µM [10] [%]	also measured
O=C1N(Cc2ccc(F)cc2)c2ccccc2C12NCCc1cccc(O)c12 (stereo not drawn) [Compound 1d, 1-(4-Fluorobenzyl)-8′-hydroxy-3′,4′-dihydro-2H-spiro[indoline-3,1′-isoquinolin]-2-one]	≥ 50	120	–	–	–	–	–	melting point: 119 to 121 °C
O=C1N(Cc2ccc(Cl)c(Cl)c2)c2ccccc2C12NCCc1cccc(O)c12 (stereo not drawn) [Compound 1g, 1-(3,4-Dichlorobenzyl)-8′-hydroxy-3′,4′-dihydro-2′H-spiro[indoline-3,1′-isoquinolin]-2-one]	–	91.1	–	–	–	–	–	melting point: 109 to 113 °C
O=C1N(Cc2ccc(Cl)cc2)c2ccccc2C12NCCc1cccc(O)c12 (stereo not drawn) [Compound 1e, 1-(4-Chlorobenzyl)-8′-hydroxy-3′,4°-dihydro-2′H-spiro[indoline-3,1′-isoquinolin]-2-one]	–	–	–	–	–	–	–	Percent (%) Inhibition of Cancer Cell Line, NSCLC ([3]; 10 μM): 30%; Percent (%) Inhibition of Cancer Cell Line, Renal Cell ([4]; 10 μM): 35%; Percent (%) Inhibition of Cancer Cell Line, Ovarian ([7]; 10 μM): 14%; Percent (%) Inhibition of Cancer Cell Line, Prostate ([8]; 10 μM): 14%; Percent (%) Inhibition of Cancer Cell Line, Breast ([5]; 10 μM): 12%; EMT6 cell proliferation (%) ([1]; 100 μM, no ligand = 100): 77.91%
O=C1Nc2ccccc2C12NCCc1cccc(O)c12 (stereo not drawn) [Compound 1a, 8′-Hydroxy-3′,4′-dihydro-2′H-spiro[indoline-3,1′-isoquinolin]-2-one]	–	104	14	–	–	–	–	inhibition at 10 µM [3]: 15%; inhibition at 10 µM [7]: 10%
COc1cc2c(cc1OC)C1(NCC2)C(=O)N(Cc2ccc(Br)cc2)c2ccc(Cl)cc21 (stereo not drawn) [Compound 5f, 1-(4-Bromobenzyl)-5-chloro-6′,7′-dimethoxy-3′,4′-dihydro-2′H-spiro[indoline-3,1′-isoquinolin]-2-one]	–	–	–	27 to 36	most potent analogues	–	38 to 55	inhibition at 10 µM [11]: 44%; inhibition at 10 µM [7]: 39%; inhibition at 10 µM [8]: 52%

Continued, in another order:

inhibition at 0.1 µM [2] [%]	Compound	activity at 100 µM [1] [%]	inhibition at 10 µM [4] [%]	inhibition at 10 µM [5] [%]	antiproliferative activity in the NCI-60 panel [6]	inhibition at 10 µM [9] [%]	inhibition at 10 µM [10] [%]	also measured
38.1	COc1ccc2c(c1)CCNC21C(=O)N(Cc2ccc(C)cc2)c2ccccc21 (stereo not drawn) [Compound 4e, 6′-Methoxy-1-(4-methylbenzyl)-3′,4′-dihydro-2′H-spiro[indoline-3,1′-isoquinolin]-2-one]	–	30 to 46	25 to 30	most potent analogues	–	–	inhibition at 10 µM [3]: 25 to 28%
36.2	COc1ccc2c(c1)CCNC21C(=O)Nc2ccccc21 (stereo not drawn) [Compound 4a, 6′-Methoxy-3′,4′-dihydro-2′H-spiro[indoline-3,1′-isoquinolin]-2-one]	–	20	–	–	20	–	–
32.4	COc1cc2c(cc1OC)C1(NCC2)C(=O)N(Cc2ccc(C)cc2)c2ccccc21 (stereo not drawn) [Compound 5e, 6′,7′-Dimethoxy-1-(4-methylbenzyl)-3′,4′-dihydro-2′H-spiro[indoline-3,1′-isoquinolin]-2-one]	–	25	22 to 24	most potent analogues	–	24 to 48	inhibition at 10 µM [8]: 42%
37.6	COc1cc2c(cc1OC)C1(NCC2)C(=O)Nc2c(Br)cc(Br)cc21 (stereo not drawn) [Compound 5c, 5,7-dibromo-6′,7′-dimethoxy-3′,4′-dihydro-2′H-spiro[indoline-3,1′-isoquinolin]-2-one]	–	27 to 35	–	–	25	24	–
≥ 50	COc1cc2c(cc1OC)C1(NCC2)C(=O)Nc2ccc(Cl)cc21 (stereo not drawn) [Compound 5b, 5-Chloro-6′,7′-dimethoxy-3′,4′-dihydro-2′H-spiro[indoline-3,1′-isoquinolin]-2-one]	–	22	–	–	32	–	–
